In US9023998B2, “Near infrared fluorogen and fluorescent activating proteins for in vivo imaging and live-cell biosensing” (Carnegie Mellon University, priority 2013, dated 2015):

What was measured:
[1] = system: S. cerevisiae expressing mL9.3 or mL9.5 surface-tethered; assay: Confocal imaging of yeast with surface-tethered FAPs; format: cell-based; settings: 100 nM fluorogen, excitation 641 nm, emission 794/160
Text: Plasmids pPNL6-mL9.3 and pPNL6-mL9.5 for yeast cell surface display were produced by PCR amplification of mL9.3 (SEQ. ID. NO. 23) and mL9.5 (SEQ. ID. NO. 24) from pPNL6-dL9.2 and pPNL6-dL9.5, respectively, using primers pCTCON2F (CGACGATTGAAGGTAGATACCCATACGACGTTCCAGACTACGCTCTGCAG) (SEQ. ID. NO. 29) and p6 mL9XRv (TCTCGATGCGGCCGCTTAAGACAAAACAGTAACTTTAGTACCACC) (SEQ. ID. NO. 30). Amplicons were digested with NheI and NotI prior to ligation into a like-digested pPNL6 vector backbone. Ligated plasmids were transformed into E. coli (NEB 10β) by heat-shock, and plasmids from single colonies were sequenced to verify identity. Upon verification, purified stocks of each plasmid were introduced into S. cerevisiae strain JAR200 via electroporation. Transformed cells were induced in the manner described in Szent-Gyorgyi, et al. 2008 for 96 hours prior to imaging. Cells were adhered to concanavalin A-coated glass-bottom dishes (MatTek Corporation) for 10 minutes at room temperature. […] Images of fluorescence (FIG. 12, NIR:794/160) were obtained by excitation with a 641 nm laser, and emission was collected through a 794/160 bandpass filter (Semrock) by an iXon3 EMCCD (DU897 BV). […]

[2] = system: HEK293 cells expressing dL9.5; assay: Confocal imaging of HEK293 cells expressing dL9.5 in various cellular contexts; format: cell-based; settings: HEK293; SKC728 100 nM, SKC602 50 nM
Text: The expressed construct was imaged using an Andor Revolution XD spinning disk confocal (GFP 488:525/50, dL9.5 (SEQ. ID. NO. 3) 640:685/70 AND 640:794/160, 60×1.49 NA oil immersion objective) and the results are shown in FIG. 5. […] The fluorogen was not washed away prior to imaging.
Imaging conditions were similar to those described for obtaining FIG. 5.
CYTOPLASM. HEK293 cells were transfected with, and stably expressing the pCYdL9.5eGFP vector, were thawed from a cryostock and maintained in DMEM/10% FBS for four passages prior to fluorescence imaging procedures. Immediately prior to imaging, growth media was exchanged for HBSS (pH 7.4) supplemented with SKC602 (200 nM final concentration). The cells were allowed to recover at 37° C. with 5% CO2 for 20-30 minutes, and fluoromodule activity under in vivo conditions within the cytoplasm was imaged using an Andor Revolution XD spinning disk confocal microscope (60×1.49 NA oil immersion objective, excitation at 640 nm, emission in far-red: 685/70 filter, and NIR: 794/160 filter). The same cells were also imaged for eGFP activity (excitation at 488 nm, emission via 525/50 nm filter). […] In accordance with the fluoromodule emission spectrum shown in FIG. 2, this emission filter allows the microscope camera to detect a large portion of the fluoromodule emission, and consequently, the observed signal appears brighter. One must note that intensities cannot be directly compared between channels, due to considerations non-exclusively including: differences in excitation light intensities, exposure and capture times, the transmission profile of each emission filter, and the quantum efficiency of the iXON3 DU897 (back-illuminated) camera across the range of emitted wavelengths. An evenly distributed fluorescence signal is observed in these cells, with no bright foci that would indicate protein aggregation, and the fluoromodule signal intensity scales with that of eGFP.
PLASMA MEMBRANE. […]

| Compound | NIR fluorescence of fluorogen alone in non-expressing yeast [1] | Membrane permeance shown by subcellular labeling (plasma membrane exterior / mitochondrial matrix) [2] |
| --- | --- | --- |
| CN(C)c1ccc(C(/C=C/c2ccc(N(C)CCCCC(=O)NC(CCS(=O)(=O)O)C(=O)O)cc2)=C2C=CC(=[N+](C)C)C=C2)cc1 (stereo not shown) [SKC728] | do not cause NIR fluorescence in the absence of cognate FAP | membrane impermeant |
| CN(C)c1ccc(/C=C/C(=C2C=CC(=[N+](C)C)C=C2)c2ccc(N(C)C)cc2)cc1 [SKC602, (E)-N-(4-(1,3-bis(4-(dimethylamino)phenyl)allylidene)cyclohexa-2,5-dien-1-ylidene)-N-methylmethanaminium] | do not cause NIR fluorescence in the absence of cognate FAP | membrane permeant |
